How the values were obtained:
MDA-MB-231 cell line = experiment: Inhibition of proliferation of MDA-MB-231 cancer cells (Cell Titer-Glo); format: cell-based; conditions: Homo sapiens, 72 hours
Procedure, shortened: (§1)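 A 72-hour treatment with compound (eleven final concentrations, 3-fold apart, top 10 μM) of cells seeded at 2,000 per well preceded a Cell Titer-Glo luminescence read, from which GI50 was obtained.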

MDA-MB-468 cell line = experiment: Inhibition of proliferation of MDA-MB-468 cancer cells (Cell Titer-Glo); format: cell-based; conditions: Homo sapiens, MDA-MB-468, 72 hours
Description: To evaluate an inhibitory effect on the proliferation of cancer cells, each of an MDA-MB-231 cell line (Korean Cell Line Bank #30026) and an MDA-MB-468 cell line as triple-negative breast cancer cell lines, and SHP-77 (ATCC #CRL-2195) as a small-cell lung cancer cell line was cultured in DMEM (HyClone #SH30243) or an RPMI medium (HyClone #SH3027.01) to analyze a cell growth rate. More specifically, a cell line was plated on a 96-well flat bottom plate (Corning #3903) at a density of 2,000 cells/100 μL per well, and then treated with 11 concentrations of the Example compound, a solution of which was diluted 3-fold so that a final concentration of the compound was 10.000000, 3.333333, 1.111111, 0.370370, 0.123457, 0.041152, 0.013717, 0.004572, 0.001524, 0.000508, and 0.000169 μM. After 72 hours, each of the culture media was treated with 100 μL of Cell Titer-Glo (Promega G7573), and then cultured at room temperature for 10 minutes. Then, a degree of luminescence was measured using a microplate reader. A GI50 value was calculated from the measured degree of luminescence using Prism (Version 8.2 GraphPad) software.

human GST-DYRK1A = target: T1, human GST-DYRK1A (Homo sapiens, UniProt Q13627); experiment: GST-DYRK1A enzyme inhibition, ADP-Glo kinase assay; format: biochemical; conditions: ATP 10 μM, GST-DYRK1A full length, read-out: DYRK1 IC50
T1 construct: purified human GST-DYRK1A (full length, Thermo Scientifics) enzyme; purchased Thermo Scientifics
Procedure, shortened: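 Full-length enzyme (10 ng) was incubated with 10 μM ATP and a specific substrate for 1 h at 25 °C in 40 mM Tris-HCl pH 7.4, 20 mM MgCl2, 0.5 mg/mL BSA, 50 μM DTT. Luminescence was read against a solvent control, and IC50 values were derived from 3 data sets.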

human GST-CLK1 = target: T2, human GST-CLK1 (Homo sapiens, UniProt P49759); experiment: GST-CLK1 enzyme inhibition, ADP-Glo kinase assay; format: biochemical; conditions: ATP 10 μM, GST-CLK1 129-end
T2 construct: purified human GST-CLK1 (129-end, SignalChem) enzyme; purchased SignalChem
T2 sequence (P49759 129-484 limits assumed): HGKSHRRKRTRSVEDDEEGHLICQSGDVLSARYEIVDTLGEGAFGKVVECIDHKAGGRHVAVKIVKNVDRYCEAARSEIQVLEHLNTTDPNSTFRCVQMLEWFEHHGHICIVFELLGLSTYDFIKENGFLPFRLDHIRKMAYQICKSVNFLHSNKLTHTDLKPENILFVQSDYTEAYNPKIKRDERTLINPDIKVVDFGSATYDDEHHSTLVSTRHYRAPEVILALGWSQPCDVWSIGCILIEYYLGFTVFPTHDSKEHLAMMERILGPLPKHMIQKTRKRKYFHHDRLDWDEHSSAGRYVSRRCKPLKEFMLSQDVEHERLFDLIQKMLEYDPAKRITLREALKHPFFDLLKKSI
Procedure, shortened: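 ADP-Glo luminescence read-out, relative to untreated solvent control, gave IC50 (nM) from triplicate data sets. Reactions ran an hour at 25° C with 3 ng GST-CLK1 (residues 129-end), 10 μM ATP and specific substrate in Tris-HCl pH 7.4 buffer with MgCl2, BSA and DTT.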

SHP-77 = experiment: Inhibition of proliferation of SHP-77 cancer cells (Cell Titer-Glo); format: cell-based; conditions: Homo sapiens, SHP77, 72 hours
Procedure, shortened: as §1

LRRK2 (G2019S) = LRRK2 (G2019S) (Homo sapiens, UniProt Q5S007, G2019S); experiment: LRRK2 G2019S enzyme inhibition, ADP-Glo kinase assay; format: biochemical; design: purchased SignalChem L10-12GG; conditions: ATP 25 μM
LRRK2 (G2019S), sequence (Q5S007 970-2527 G2019S limits assumed): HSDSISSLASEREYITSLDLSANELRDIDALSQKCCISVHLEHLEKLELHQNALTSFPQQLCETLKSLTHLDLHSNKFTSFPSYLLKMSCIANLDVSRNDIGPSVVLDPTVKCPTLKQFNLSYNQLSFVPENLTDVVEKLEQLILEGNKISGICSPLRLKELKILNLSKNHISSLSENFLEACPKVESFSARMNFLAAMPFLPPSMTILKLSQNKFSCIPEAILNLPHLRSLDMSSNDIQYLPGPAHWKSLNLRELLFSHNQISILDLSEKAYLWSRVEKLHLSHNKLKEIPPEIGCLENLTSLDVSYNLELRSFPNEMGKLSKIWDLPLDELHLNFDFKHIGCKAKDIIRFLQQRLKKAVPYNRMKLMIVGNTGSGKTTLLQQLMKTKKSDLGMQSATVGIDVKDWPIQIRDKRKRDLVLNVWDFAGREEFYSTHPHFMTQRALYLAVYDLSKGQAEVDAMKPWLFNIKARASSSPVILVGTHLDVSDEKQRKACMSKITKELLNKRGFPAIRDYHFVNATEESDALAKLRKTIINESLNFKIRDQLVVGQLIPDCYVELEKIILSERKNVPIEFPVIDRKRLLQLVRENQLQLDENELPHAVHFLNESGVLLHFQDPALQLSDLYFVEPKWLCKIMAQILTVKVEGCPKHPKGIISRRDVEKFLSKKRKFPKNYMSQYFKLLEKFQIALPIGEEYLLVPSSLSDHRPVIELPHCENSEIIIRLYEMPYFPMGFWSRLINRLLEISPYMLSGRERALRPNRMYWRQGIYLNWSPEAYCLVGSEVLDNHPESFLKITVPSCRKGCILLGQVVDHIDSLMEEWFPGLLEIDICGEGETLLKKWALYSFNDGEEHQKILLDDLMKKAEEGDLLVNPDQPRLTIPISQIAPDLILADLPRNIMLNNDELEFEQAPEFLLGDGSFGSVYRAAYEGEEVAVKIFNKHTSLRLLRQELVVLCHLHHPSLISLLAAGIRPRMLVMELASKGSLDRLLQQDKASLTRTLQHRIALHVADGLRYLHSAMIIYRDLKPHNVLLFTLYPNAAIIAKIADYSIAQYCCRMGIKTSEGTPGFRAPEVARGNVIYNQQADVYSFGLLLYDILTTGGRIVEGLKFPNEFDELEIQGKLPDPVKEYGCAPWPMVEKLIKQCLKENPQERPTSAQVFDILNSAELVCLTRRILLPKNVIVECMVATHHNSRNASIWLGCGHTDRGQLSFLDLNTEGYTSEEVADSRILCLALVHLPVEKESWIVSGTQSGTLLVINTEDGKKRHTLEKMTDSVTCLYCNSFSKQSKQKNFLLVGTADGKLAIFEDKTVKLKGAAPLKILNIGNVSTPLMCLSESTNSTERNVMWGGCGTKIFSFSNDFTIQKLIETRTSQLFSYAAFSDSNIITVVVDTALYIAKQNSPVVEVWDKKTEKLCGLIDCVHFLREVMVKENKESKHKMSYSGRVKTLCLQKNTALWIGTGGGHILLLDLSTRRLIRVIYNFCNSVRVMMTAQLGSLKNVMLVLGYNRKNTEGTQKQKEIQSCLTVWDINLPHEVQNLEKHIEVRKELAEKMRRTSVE
Procedure, shortened: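 IC50 derived from luminescent ADP-Glo readout against untreated solvent control, twelve final compound concentrations from 50 μM downward. Reaction: recombinant human LRRK2 G2019S enzyme, 25 μM ATP, substrate, pH 7.4 Tris buffer with MgCl2/BSA/DTT, 25° C. for 2 hours.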

LRRK2 = LRRK2 (Homo sapiens, UniProt Q5S007); experiment: LRRK2 enzyme inhibition, ADP-Glo kinase assay; format: biochemical; design: purchased Invitrogen PR8604B; conditions: ATP 10 μM
LRRK2, sequence (Q5S007 970-2527 limits assumed): as the sequence (Q5S007 970-2527 G2019S limits assumed) above, with S1050G counted along it
Procedure, shortened: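 ADP-Glo luminescent read-out of ADP formed by purified human LRRK2 enzyme (25 ng), 10 μM ATP, 0.2 μg substrate, 25° C for 2 h, Tris-HCl pH 7.4 buffer with MgCl2, BSA, DTT. Inhibition versus untreated solvent control over twelve final concentrations (50 μM downward) gives IC50.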

TTK = target: T3, TTK (Homo sapiens, UniProt P33981); experiment: TTK enzyme inhibition, ADP-Glo kinase assay; format: biochemical; design: purchased SignalChem T20-10G; conditions: ATP 5 μM
T3 sequence (P33981 1-857): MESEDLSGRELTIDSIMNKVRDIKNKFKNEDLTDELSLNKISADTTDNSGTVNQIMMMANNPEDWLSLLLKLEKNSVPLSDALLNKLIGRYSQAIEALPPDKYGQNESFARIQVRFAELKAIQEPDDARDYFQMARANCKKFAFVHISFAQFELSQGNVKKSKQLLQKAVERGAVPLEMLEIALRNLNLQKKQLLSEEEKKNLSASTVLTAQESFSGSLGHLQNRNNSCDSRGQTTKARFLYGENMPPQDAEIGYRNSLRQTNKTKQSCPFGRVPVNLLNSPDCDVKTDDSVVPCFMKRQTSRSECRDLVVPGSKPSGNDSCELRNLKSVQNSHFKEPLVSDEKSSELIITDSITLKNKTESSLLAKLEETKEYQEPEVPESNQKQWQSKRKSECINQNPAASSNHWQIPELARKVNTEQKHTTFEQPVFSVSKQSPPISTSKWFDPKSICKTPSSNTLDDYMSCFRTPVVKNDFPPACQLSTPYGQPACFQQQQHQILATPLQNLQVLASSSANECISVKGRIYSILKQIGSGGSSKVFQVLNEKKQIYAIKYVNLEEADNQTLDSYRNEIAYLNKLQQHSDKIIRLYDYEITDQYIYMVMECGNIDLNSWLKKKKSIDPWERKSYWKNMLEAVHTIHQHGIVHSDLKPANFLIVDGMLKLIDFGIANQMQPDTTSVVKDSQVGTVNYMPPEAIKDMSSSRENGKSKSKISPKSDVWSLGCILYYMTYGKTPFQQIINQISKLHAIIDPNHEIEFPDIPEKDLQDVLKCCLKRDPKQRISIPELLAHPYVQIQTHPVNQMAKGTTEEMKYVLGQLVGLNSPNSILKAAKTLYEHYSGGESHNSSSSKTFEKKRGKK
Description: To evaluate an inhibitory activity of the compound according to the present invention against LRRK2, LRRK2 (G2019S), DYRK1, CLK1, and TTK kinases, experiments were performed as follows.
Each of the Example compounds was reacted with a purified human TTK (SignalChem #T20-10G) enzyme to evaluate an ability to inhibit an enzyme using a method as described below. A composition of 40 mM Tris-HCl (pH 7.4), 20 mM MgCl2, 0.1 mg/mL BSA (a 5× kinase buffer, SignalChem #K03-09), and 50 μM DTT (SignalChem #D86-09B) was used as a reaction buffer, and all reactions of test substances were performed in the reaction buffer. Each of the compounds was diluted […] from a 10 mM DMSO stock using a serial dilution method, and enzyme activities were measured at final compound concentrations of 1, 0.333333, 0.111111, 0.037037, 0.012346, 0.004115, 0.001372, 0.000457, 0.000152, 0.000051, and 0.000017 μM. In the test, purified ATP (5 μM, Promega #V6930) and an MBP enzyme substrate (0.2 μg, SignalChem M42-51N) were reacted with a human TTK (7.5 ng) enzyme at 25° C. for 4 hours, and the enzyme activities were then determined using an in vitro ADP-Glo™ kinase assay (Promega #V6930). An enzyme-activity reaction solution, an ADP-Glo reaction solution, and an enzyme-ability detection solution were reacted at a ratio of 2:2:1 to measure a degree of inhibition of the enzyme activity with luminescence. The degree of inhibition of the enzyme activity according to the treatment concentration of each of the compounds was calculated based on the fluorescence of the enzyme activity of the solvent control which was not treated with the compound. In this case, the concentration of each of the compounds inhibiting 50% of the enzyme activity was determined to be an IC50 (nM) value, and calculated using Prism (Version 8.2 GraphPad) software.

Molecule `COc1cc(S(=O)(=O)N2CCC(N3CCOCC3)CC2)ccc1Nc1nc(NC2CCCC2)c2c(C#N)c[nH]c2n1` [Example 90, 4-(cyclopentylamino)-2-((2-methoxy-4-((4-morpholinopiperidin-1-yl)sulfonyl)phenyl)amino)-7H-pyrrolo[2,3-d]pyrimidine-5-carbonitrile] has a GI50 (MDA-MB-231 cell line) of 51 to 100 nM, a GI50 (MDA-MB-468 cell line) of 51 to 100 nM and an IC50 (human GST-DYRK1A) of 301 to 1000 nM. For the same molecule, the IC50 (human GST-CLK1) was 301 to 1000 nM, the GI50 (SHP-77) was 101 to 300 nM and the IC50 (LRRK2 (G2019S)) was under 100 nM. For the same molecule, the IC50 (LRRK2) was 101 to 300 nM.

Molecule `COc1cc(S(=O)(=O)N2CCOCC2)ccc1Nc1nc(N[C@H]2CCOC2)c2c(C#N)c[nH]c2n1` [Example 75, (S)-2-((2-methoxy-4-(morpholinosulfonyl)phenyl)amino)-4-((tetrahydrofuran-3-yl)amino)-7H-pyrrolo[2,3-d]pyrimidine-5-carbonitrile] has a GI50 (MDA-MB-231 cell line) of 51 to 100 nM, a GI50 (MDA-MB-468 cell line) of 101 to 300 nM and an IC50 (human GST-DYRK1A) of 301 to 1000 nM. The IC50 (human GST-CLK1) was 301 to 1000 nM and the GI50 (SHP-77) was under 50 nM.

`COc1cc(S(=O)(=O)N2CCC(N3CCOCC3)CC2)ccc1Nc1nc(NC2CCCCC2)c2c(C#N)c[nH]c2n1` [Example 91, 4-(cyclohexylamino)-2-((2-methoxy-4-((4-morpholinopiperidin-1-yl)sulfonyl)phenyl)amino)-7H-pyrrolo[2,3-d]pyrimidine-5-carbonitrile] was tested, and the GI50 (MDA-MB-231 cell line) was 51 to 100 nM, the GI50 (MDA-MB-468 cell line) was 51 to 100 nM and the IC50 (human GST-DYRK1A) was 301 to 1000 nM. The IC50 (human GST-CLK1) was 301 to 1000 nM, the GI50 (SHP-77) was under 50 nM and the IC50 (LRRK2 (G2019S)) was under 100 nM. The IC50 (LRRK2) was under 100 nM.

Work on `COc1cc(S(=O)(=O)N2CCOCC2)ccc1Nc1nc(NC2CCCCC2)c2c(C#N)c[nH]c2n1` [Example 73] yielded a GI50 (MDA-MB-231 cell line) of under 50 nM, a GI50 (MDA-MB-468 cell line) of 101 to 300 nM and an IC50 (human GST-DYRK1A) of 301 to 1000 nM. It also gave an IC50 (human GST-CLK1) of 301 to 1000 nM, a GI50 (SHP-77) of under 50 nM and an IC50 (LRRK2 (G2019S)) of 301 to 1000 nM. For the same molecule, the IC50 (LRRK2) was under 100 nM.

`COc1cc(P2(=O)CCN(C3CCOCC3)CC2)ccc1Nc1nc(NC2CCCCC2)c2cc[nH]c2n1` [Example 61, 4-(4-((4-(cyclohexylamino)-7H-pyrrolo[2,3-d]pyrimidin-2-yl)amino)-3-methoxyphenyl)-1-(tetrahydro-2H-pyran-4-yl)-1,4-azaphosphinane 4-oxide] gave a GI50 (MDA-MB-231 cell line) of 301 to 1000 nM, an IC50 (TTK) of under 100 nM and an IC50 (human GST-DYRK1A) of 301 to 1000 nM. For the same molecule, the IC50 (human GST-CLK1) was 301 to 1000 nM.

`COc1cc(S(=O)(=O)N2CCOCC2)ccc1Nc1nc(NC2CCCC2)c2c(C#N)c[nH]c2n1` [Example 72, 4-(cyclopentylamino)-2-((2-methoxy-4-(morpholinosulfonyl)phenyl)amino)-7H-pyrrolo[2,3-d]pyrimidine-5-carbonitrile] showed a GI50 (MDA-MB-231 cell line) of under 50 nM, an IC50 (human GST-DYRK1A) of 301 to 1000 nM and an IC50 (human GST-CLK1) of 301 to 1000 nM. It also gave a GI50 (SHP-77) of under 50 nM, an IC50 (LRRK2 (G2019S)) of 301 to 1000 nM and an IC50 (LRRK2) of 301 to 1000 nM.

For `CCNc1nc(Nc2ccc(S(=O)(=O)N3CCOCC3)cc2OC)nc2[nH]cc(C#N)c12` [Example 63, 4-(ethylamino)-2-((2-methoxy-4-(morpholinosulfonyl)phenyl)amino)-7H-pyrrolo[2,3-d]pyrimidine-5-carbonitrile], the GI50 (MDA-MB-231 cell line) was 301 to 1000 nM, the IC50 (human GST-DYRK1A) was 301 to 1000 nM and the IC50 (human GST-CLK1) was 301 to 1000 nM. The GI50 (SHP-77) was 301 to 1000 nM, the IC50 (LRRK2 (G2019S)) was under 100 nM and the IC50 (LRRK2) was under 100 nM.

In the case of `COc1cc(P2(=O)CCN(C3COC3)CC2)ccc1Nc1nc(NC2CCCC2)c2c(C#N)c[nH]c2n1` [Example 313, 4-(cyclo-pentylamino)-2-((2-methoxy-4-(1-(oxetan-3-yl)-4-oxido-1,4-azaphosphinan-4-yl)phenyl)amino)-7H-pyrrolo[2,3-d]pyrimidine-5-carbonitrile], the IC50 (TTK) is reported as under 100 nM, the IC50 (human GST-DYRK1A) is reported as 101 to 300 nM and the IC50 (human GST-CLK1) is reported as 101 to 300 nM.

`CC[C@@H](C)Nc1nc(Nc2ccc(S(=O)(=O)N3CCC(N4CCOCC4)CC3)cc2OC)nc2[nH]cc(C(F)(F)F)c12` [Example 172, (R)-N^4-(sec-butyl)-N^2-(2-methoxy-4-((4-morpholinopiperidin-1-yl)sulfonyl)phenyl)-5-(trifluoromethyl)-7H-pyrrolo[2,3-d]pyrimidine-2,4-diamine] was tested, and the GI50 (MDA-MB-231 cell line) was 301 to 1000 nM, the IC50 (human GST-DYRK1A) was 301 to 1000 nM and the IC50 (human GST-CLK1) was 301 to 1000 nM. The GI50 (SHP-77) was 101 to 300 nM, the IC50 (LRRK2 (G2019S)) was 301 to 1000 nM and the IC50 (LRRK2) was 301 to 1000 nM.

Molecule `COc1cc(S(=O)(=O)N2CCOCC2)ccc1Nc1nc(NC2CCC2)c2c(C#N)c[nH]c2n1` [Example 71, 4-(cyclobutylamino)-2-((2-methoxy-4-(morpholinosulfonyl)phenyl)amino)-7H-pyrrolo[2,3-d]pyrimidine-5-carbonitrile] has a GI50 (MDA-MB-231 cell line) of 101 to 300 nM, an IC50 (human GST-DYRK1A) of 301 to 1000 nM and an IC50 (human GST-CLK1) of 301 to 1000 nM. The GI50 (SHP-77) was 51 to 100 nM, the IC50 (LRRK2 (G2019S)) was under 100 nM and the IC50 (LRRK2) was under 100 nM.
